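Step 1: Grow cells in 96-well plates. Step 2: Expose to compound for 48 hours at 5 concentrations. Step 3: Interpolate endpoints linearly; if unreached, use highest concentration. Here, GI50 denotes the concentration required for 50% inhibition of growth.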 Calls of active or inactive are those of the source. Rule as the data show it: active = GI50 up to about 1.1 µM and inactive = higher.
What was measured:
Experiment in all cases: DTP human tumour cell line panel, 48 h
786-0 = system: 786-0
A498 = system: A498
A549 = system: A549
ACHN = system: ACHN
CAKI-1 = system: CAKI-1
CCRF-CEM = system: CCRF-CEM
COLO 205 = system: COLO 205
DLD-1 = system: DLD-1
DMS-114 = system: DMS-114
DMS-273 = system: DMS-273
EKVX = system: EKVX
HCC 2998 = system: HCC 2998
HCT-15 = system: HCT-15
HL-60 = system: HL-60
HOP-18 = system: HOP-18
HOP-62 = system: HOP-62
HT-29 = system: HT-29
IGROV-1 = system: IGROV-1
K562 = system: K562
KM-20L2 = system: KM-20L2
KM12 = system: KM12
LOX IMVI = system: LOX IMVI
LXFL 529 = system: LXFL 529
M14 = system: M14
M19-MEL = system: M19-MEL
MOLT-4 = system: MOLT-4
Malme-3M = system: Malme-3M
NCI-H226 = system: NCI-H226
NCI-H23 = system: NCI-H23
NCI-H460 = system: NCI-H460
NCI-H522 = system: NCI-H522
OVCAR-3 = system: OVCAR-3
OVCAR-4 = system: OVCAR-4
OVCAR-5 = system: OVCAR-5
OVCAR-8 = system: OVCAR-8
RPMI-8226 = system: RPMI-8226
RXF 631 = system: RXF 631
SF-268 = system: SF-268
SF-295 = system: SF-295
SF-539 = system: SF-539
SK-MEL-28 = system: SK-MEL-28
SK-MEL-2 = system: SK-MEL-2
SK-MEL-5 = system: SK-MEL-5
SK-OV-3 = system: SK-OV-3
SN12C = system: SN12C
SNB-19 = system: SNB-19
SNB-75 = system: SNB-75
SNB-78 = system: SNB-78
SW-620 = system: SW-620
TK-10 = system: TK-10
U-251 = system: U-251
UACC-257 = system: UACC-257
UACC-62 = system: UACC-62
UO-31 = system: UO-31
XF498 = system: XF498
HCT-116 = system: HCT-116
HOP-92 = system: HOP-92
RXF 393 = system: RXF 393

COc1ccc(-c2c(N)[n+]([O-])c3cc(C)c(C)cc3[n+]2[O-])cc1OC
GI50 (786-0): > 100 µM (inactive) | GI50 (A498): > 100 µM (inactive) | GI50 (A549): > 100 µM (inactive) | GI50 (ACHN): > 100 µM (inactive) | GI50 (CAKI-1): 37.8 µM (inactive) | GI50 (CCRF-CEM): 78 µM (inactive) | GI50 (COLO 205): 22.3 µM (inactive) | GI50 (DLD-1): 85.7 µM (inactive) | GI50 (DMS-114): 25.5 µM (inactive) | GI50 (DMS-273): 99.3 µM (inactive) | GI50 (EKVX): > 100 µM (inactive) | GI50 (HCC 2998): > 100 µM (inactive) | GI50 (HCT-15): 48.6 µM | GI50 (HL-60): 46.3 µM (inactive) | GI50 (HOP-18): 28.8 µM (inactive) | GI50 (HOP-62): > 100 µM (inactive) | GI50 (HT-29): 73.1 µM (inactive) | GI50 (IGROV-1): > 100 µM (inactive) | GI50 (K562): 69.7 µM (inactive) | GI50 (KM-20L2): 54.3 µM (inactive) | GI50 (KM12): > 100 µM (inactive) | GI50 (LOX IMVI): > 100 µM (inactive) | GI50 (LXFL 529): 58.5 µM (inactive) | GI50 (M14): 55.6 µM (inactive) | GI50 (M19-MEL): 72.3 µM (inactive) | GI50 (MOLT-4): 78.3 µM (inactive) | GI50 (Malme-3M): > 100 µM (inactive) | GI50 (NCI-H226): > 100 µM (inactive) | GI50 (NCI-H23): 34 µM (inactive) | GI50 (NCI-H460): > 100 µM (inactive) | GI50 (NCI-H522): 17.5 µM (inactive) | GI50 (OVCAR-3): > 100 µM (inactive) | GI50 (OVCAR-4): > 100 µM (inactive) | GI50 (OVCAR-5): > 100 µM (inactive) | GI50 (OVCAR-8): > 100 µM (inactive) | GI50 (RPMI-8226): > 100 µM (inactive) | GI50 (RXF 631): 20.4 µM (inactive) | GI50 (SF-268): 43.8 µM (inactive) | GI50 (SF-295): > 100 µM (inactive) | GI50 (SF-539): 33.9 µM (inactive) | GI50 (SK-MEL-28): 38.5 µM (inactive) | GI50 (SK-MEL-2): 66.8 µM (inactive) | GI50 (SK-MEL-5): 30.9 µM (inactive) | GI50 (SK-OV-3): > 100 µM (inactive) | GI50 (SN12C): > 100 µM (inactive) | GI50 (SNB-19): 91.2 µM (inactive) | GI50 (SNB-75): 36.4 µM (inactive) | GI50 (SNB-78): > 100 µM (inactive) | GI50 (SW-620): 74.8 µM (inactive) | GI50 (TK-10): > 100 µM (inactive) | GI50 (U-251): 67.3 µM (inactive) | GI50 (UACC-257): 41.5 µM (inactive) | GI50 (UACC-62): 41.4 µM (inactive) | GI50 (UO-31): 54 µM (inactive) | GI50 (XF498): > 100 µM (inactive)

CC1=C(C(=O)CC(=O)C(=O)Nc2ccc(Cl)cc2C)Sc2ccccc2N1
GI50 (786-0): > 100 µM (inactive) | GI50 (A498): > 100 µM (inactive) | GI50 (A549): > 100 µM (inactive) | GI50 (ACHN): > 100 µM (inactive) | GI50 (CAKI-1): > 100 µM (inactive) | GI50 (CCRF-CEM): > 100 µM (inactive) | GI50 (COLO 205): > 100 µM (inactive) | GI50 (DLD-1): > 100 µM (inactive) | GI50 (DMS-114): > 92.7 µM (inactive) | GI50 (DMS-273): > 100 µM (inactive) | GI50 (EKVX): > 100 µM (inactive) | GI50 (HCC 2998): > 100 µM (inactive) | GI50 (HCT-116): > 100 µM (inactive) | GI50 (HCT-15): > 100 µM | GI50 (HL-60): > 100 µM (inactive) | GI50 (HOP-18): > 100 µM (inactive) | GI50 (HOP-62): > 100 µM (inactive) | GI50 (HOP-92): 22.8 µM (inactive) | GI50 (HT-29): > 100 µM (inactive) | GI50 (IGROV-1): > 100 µM (inactive) | GI50 (K562): > 100 µM (inactive) | GI50 (KM-20L2): > 100 µM (inactive) | GI50 (KM12): > 100 µM (inactive) | GI50 (LOX IMVI): > 100 µM (inactive) | GI50 (LXFL 529): > 100 µM (inactive) | GI50 (M14): > 100 µM (inactive) | GI50 (M19-MEL): > 100 µM (inactive) | GI50 (MOLT-4): > 59.6 µM (inactive) | GI50 (Malme-3M): > 100 µM (inactive) | GI50 (NCI-H23): > 100 µM (inactive) | GI50 (NCI-H460): > 100 µM (inactive) | GI50 (NCI-H522): > 84.7 µM (inactive) | GI50 (OVCAR-3): > 100 µM (inactive) | GI50 (OVCAR-4): > 100 µM (inactive) | GI50 (OVCAR-5): > 100 µM (inactive) | GI50 (OVCAR-8): > 100 µM (inactive) | GI50 (RPMI-8226): > 100 µM (inactive) | GI50 (RXF 393): > 100 µM (inactive) | GI50 (RXF 631): > 100 µM (inactive) | GI50 (SF-268): > 100 µM (inactive) | GI50 (SF-295): > 100 µM (inactive) | GI50 (SF-539): > 100 µM (inactive) | GI50 (SK-MEL-28): > 100 µM (inactive) | GI50 (SK-MEL-2): > 100 µM (inactive) | GI50 (SK-MEL-5): > 100 µM (inactive) | GI50 (SK-OV-3): > 100 µM (inactive) | GI50 (SN12C): > 100 µM (inactive) | GI50 (SNB-19): > 100 µM (inactive) | GI50 (SNB-75): > 100 µM (inactive) | GI50 (SNB-78): > 100 µM (inactive) | GI50 (SW-620): > 100 µM (inactive) | GI50 (TK-10): > 100 µM (inactive) | GI50 (U-251): > 100 µM (inactive) | GI50 (UACC-257): > 100 µM (inactive) | GI50 (UACC-62): > 100 µM (inactive) | GI50 (UO-31): > 100 µM (inactive) | GI50 (XF498): > 100 µM (inactive)
